Here are results for four compounds from patent US5495032A, “Process for producing 7-(substituted)-8-(substituted-9-[(substituted glycyl)amido]-6-demethyl-6-deoxytetracyclines” (priority 1994, dated 1996).

Assay type in all cases: cell-based
One assay relates to S. aureus SMITH (MP). The experiment in a line: MIC, agar dilution method. To be noted: Staphylococcus aureus, 18 hours at 35° C., read-out: MIC.
Assay [1] concerns S. aureus UBMS 90-2 Tet M. The experiment in a line: microbe, parasite or virus in culture. To be noted: Staphylococcus aureus, UBMS902TETM, 18 h, 18 hours at 35° C.
For a further assay, the system named is S. aureus ATCC 29213. The experiment in a line: MIC, agar dilution method. The settings on record: Staphylococcus aureus, ATCC29213, 18 hours at 35° C., read-out: MIC. Background: Agar dilution tests growth on a series of plates holding different concentrations.
Another assay deals with E. coli UBMS 88-1 Tet B. The experiment in a line: microbe, parasite or virus in culture. The settings on record: Escherichia coli, UBMS881TETB, 18 h, 18 hours at 35° C.
The subject of assay [2] is E. coli MC 4100 Tet sens. The experiment in a line: MIC, agar dilution method. The settings on record: Escherichia coli, 18 hours at 35° C., read-out: MIC.
For the next assay, the system named is E. coli UBMS 89-1 Tet M. The experiment in a line: microbe, parasite or virus in culture. To be noted: Escherichia coli, UBMS891TETM, 18 h, 18 hours at 35° C.
A further assay relates to E. coli UBMS 90-5 sens. The experiment in a line: MIC, agar dilution method. To be noted: Escherichia coli, UBMS905SENS, 18 hours at 35° C., read-out: MIC.
The test system of assay [3] is S. aureus UBMS 90-1 Tet M. In words: microbe, parasite or virus in culture. To be noted: Staphylococcus aureus, UBMS901TETM, 18 h, 18 hours at 35° C.
The subject of another assay is S. aureus ROSE (MP). The experiment in a line: MIC, agar dilution method. To be noted: Staphylococcus aureus, 18 hours at 35° C.
The test system of another assay is S. aureus IVES 2943. In words: MIC, agar dilution method. The settings on record: Staphylococcus aureus.
Another assay has as its system E. coli ATCC 25922. In words: MIC, agar dilution method. To be noted: Escherichia coli, ATCC25922, 18 hours at 35° C., read-out: MIC.
Assay [4] deals with S. hemolyticus AVHAH 88-3. In words: MIC, agar dilution method. To be noted: Streptococcus pyogenes.
The subject of the next assay is E. coli J2175. In words: MIC, agar dilution method. The settings on record: Escherichia coli, 18 hours at 35° C., read-out: MIC.
In the next assay the test system is E. coli PRP1 Tet A. The experiment in a line: microbe, parasite or virus in culture. To be noted: Escherichia coli, PRP1TETA, 18 h, 18 hours at 35° C.
The subject of a further assay is S. mariescens FPOR 8733. In words: MIC, agar dilution method. The settings on record: 18 h, 18 hours at 35° C.
A further assay has as its system Enterococcus 12201. In words: MIC, agar dilution method. To be noted: 18 hours at 35° C.
In another assay the test system is E. coli #311 (MP). In words: MIC, agar dilution method. The settings on record: Escherichia coli, 18 hours at 35° C., read-out: MIC.
In another assay the test system is E. coli J3272 Tet D. The experiment in a line: microbe, parasite or virus in culture. The settings on record: Escherichia coli, J3272TETD, 18 h.
For assay [5], the system named is S. aureus UBMS 88-7 Tet K. The experiment in a line: microbe, parasite or virus in culture. To be noted: Staphylococcus aureus, UBMS887TETK, 18 h, 18 hours at 35° C.
Another assay relates to E. faecalis ATCC 29212. In words: MIC, agar dilution method. The settings on record: Enterococcus faecalis.
For a further assay, the system named is S. aureus UBMS 88-4. The experiment in a line: MIC, agar dilution method. The settings on record: Staphylococcus aureus, UBMS884, 18 hours at 35° C., read-out: MIC.
Assay [6] concerns X. maltophilia NEMC 87210. In words: MIC, agar dilution method. The settings on record: Stenotrophomonas maltophilia.
Assay [7] concerns S. aureus UBMS 88-5 Tet M. In words: microbe, parasite or virus in culture. To be noted: Staphylococcus aureus, UBMS885TETM, 18 h.
The next assay deals with E. coli UBMS 90-4 Tet M. In words: microbe, parasite or virus in culture. The settings on record: Escherichia coli, UBMS904TETM, 18 h, 18 hours at 35° C.
Assay [8] relates to E. coli UBMS 89-2 Tet sens. The experiment in a line: MIC, agar dilution method. The settings on record: Escherichia coli, UBMS892TETSENS, 18 h, 18 hours at 35° C., read-out: MIC.
The next assay has as its system S. aureus NEMC 8769. In words: MIC, agar dilution method. To be noted: Staphylococcus aureus, NEMC8769; S. aureus NEMC 8769; 18 hours at 35° C.; read-out: MIC.
In a further assay the test system is S. aureus IVES 1 983. In words: MIC, agar dilution method. The settings on record: Staphylococcus aureus.
Another assay deals with E. coli BAJ9003 IMP MUT. The experiment in a line: microbe, parasite or virus in culture. To be noted: Escherichia coli, BAJ9003IMPMUT, 18 h, 18 hours at 35° C.
The test system of assay [9] is E. coli MC 4100 TNIOC Tet B. In words: microbe, parasite or virus in culture. To be noted: Escherichia coli, 18 h, 18 hours at 35° C.
Another assay deals with E. coli J3272 Tet C. The experiment in a line: microbe, parasite or virus in culture. To be noted: Escherichia coli, J3272TETC, 18 h.
Assay [10] concerns Ps. acruginosa ATCC 27853. In words: MIC, agar dilution method.
The mark [11] stands for this setting: IVES2943, S. aureus IVES 2943, 18 hours at 35° C., read-out: MIC.
The mark [12] stands for this setting: AVHAH883, 18 hours at 35° C., read-out: MIC.
[13] abbreviates: ATCC29212, 18 h, 18 hours at 35° C.
The mark [14] stands for this setting: NEMC87210, 18 h, 18 hours at 35° C.
Where [15] appears, read: IVES1983, S. aureus IVES 1 983, 18 hours at 35° C., read-out: MIC.
[16] abbreviates: S. aureus UBMS 88-5 Tet M, 18 hours at 35° C.
Where [17] appears, read: AVHAH883, 18 h, 18 hours at 35° C.

In brackets after ≈: the same amount, converted by molar mass. Structures can show the parent of a compound that is named as a salt. Where two headings read alike, the source gives them in different places. Some results are limits rather than exact numbers.

`CCCCNCC(=O)Nc1c(Cl)cc2c(c1O)C(=O)C1=C(O)[C@]3(O)C(=O)C(C(N)=O)=C(O)[C@@H](N(C)C)C3CC1C2` (stereo partly drawn) [D, [4S-(4α,12aα)]-9-[[(Butylamino)acetyl]amino]-8-chloro-4-(dimethylamino) -1,4,4a,5,5a,6,11,12a-octahydro-3,10,12,12a-tetrahydroxy-1,11-dioxo-2-naphthacenecarboxamide dihydrochloride]: the MIC in the assay on S. aureus SMITH (MP) was determined as 0.5 mg/L; in assay [1], 0.5 mg/L; in the assay on S. aureus ATCC 29213, 0.5 mg/L; against E. coli UBMS 88-1 Tet B, 2 mg/L; in assay [2], 0.25 mg/L; in the assay with E. coli UBMS 89-1 Tet M it was 0.5 mg/L. Further, the MIC came to 1 mg/L in the assay with E. coli UBMS 90-5 sens; 2 mg/L in assay [3]; 16 mg/L in the assay on S. aureus ROSE (MP) (read-out: MIC); 16 mg/L in the assay with S. aureus IVES 2943 (setting [11]); 1 mg/L with E. coli ATCC 25922; 8 mg/L in [4] (setting [12]). Also, the MIC was determined as 1 mg/L in the assay with E. coli J2175; 4 mg/L against E. coli PRP1 Tet A; 16 mg/L in the assay on S. mariescens FPOR 8733; 0.5 mg/L with Enterococcus 12201 (read-out: MIC); 1 mg/L in the assay with E. coli #311 (MP); 1 mg/L in the assay on E. coli J3272 Tet D. The MIC in assay [5] is 8 mg/L; against E. faecalis ATCC 29212 (setting [13]), 0.25 mg/L; in the assay on S. aureus UBMS 88-4, 0.5 mg/L; in assay [6] (setting [14]) it was 4 mg/L; in assay [7] it was 1 mg/L; in the assay with E. coli UBMS 90-4 Tet M, 1 mg/L. The MIC is 2 mg/L in [8]; 0.5 mg/L in the assay on S. aureus NEMC 8769; 8 mg/L in the assay with S. aureus IVES 1 983 (setting [15]); 0.25 mg/L in the assay with E. coli BAJ9003 IMP MUT; 1 mg/L in [9]; 2 mg/L in the assay on E. coli J3272 Tet C. This compound came in with an MIC in [10] (18 h) of more than 32 mg/L.

With `CN(C)[C@@H]1C(O)=C(C(N)=O)C(=O)[C@@]2(O)C(O)=C3C(=O)c4c(cc(Cl)c(NC(=O)CCl)c4O)CC3CC12` (stereo partly drawn) [K, [4S-(4α,12aα)]-9-[(Chloroacetyl)amino]-8-chloro-4-(dimethylamino)-1,4,4a,5,5a ,6,11,12a-octahydro-3,10,12,12a-tetrahydroxy-1,11-dioxo-2-naphthacenecarboxamide hydrochloride], the MIC in the assay on S. aureus SMITH (MP) was 0.5 mg/L; in [1], 0.5 mg/L; in the assay on S. aureus ATCC 29213, 0.5 mg/L; with E. coli UBMS 88-1 Tet B, more than 32 mg/L; in assay [2], 8 mg/L; in the assay with E. coli UBMS 89-1 Tet M it was 8 mg/L. In addition, the MIC in the assay with E. coli UBMS 90-5 sens is more than 32 mg/L; in [3] it was 1 mg/L; in the assay on S. aureus ROSE (MP) (read-out: MIC) it was 4 mg/L; in the assay on S. aureus IVES 2943 (setting [11]) it was 4 mg/L; in the assay with E. coli ATCC 25922, 16 mg/L; in [4] (setting [12]), 4 mg/L. Moreover, the MIC in the assay with E. coli J2175 is more than 32 mg/L; with E. coli PRP1 Tet A it was more than 32 mg/L; against S. mariescens FPOR 8733, more than 32 mg/L; in the assay with Enterococcus 12201 (read-out: MIC), 2 mg/L; in the assay on E. coli #311 (MP), 16 mg/L; with E. coli J3272 Tet D it was more than 32 mg/L. Besides, the MIC in assay [5] is 4 mg/L; with E. faecalis ATCC 29212 (ATCC29212, 18 hours at 35° C., read-out: MIC), 0.5 mg/L; in the assay with S. aureus UBMS 88-4 it was 0.5 mg/L; in assay [6] (NEMC87210, 18 hours at 35° C., read-out: MIC), 8 mg/L; in assay [7] (setting [16]), 1 mg/L; in the assay with E. coli UBMS 90-4 Tet M it was more than 32 mg/L. For the same compound, the MIC was more than 32 mg/L in assay [8]; 0.5 mg/L in the assay with S. aureus NEMC 8769; 4 mg/L in the assay with S. aureus IVES 1 983 (setting [15]); 1 mg/L against E. coli BAJ9003 IMP MUT; more than 32 mg/L in assay [9]; more than 32 mg/L in the assay on E. coli J3272 Tet C. Moreover, the MIC in assay [10] (Ps. acruginosa ATCC 27853, 18 hours at 35° C., read-out: MIC) is more than 32 mg/L.

On to `CN(C)c1ccc(O)c2c1C[C@H]1C[C@H]3[C@H](N(C)C)C(O)=C(C(N)=O)C(=O)[C@@]3(O)C(O)=C1C2=O` [L, Minocycline, reference compound], for which the MIC was 8 mg/L (≈ 17.5 µM) in assay [3]; 1 mg/L (≈ 2.19 µM) in the assay with S. aureus ROSE (MP) (read-out: MIC); 0.25 mg/L (≈ 0.546 µM) in [4] (setting [17]); 0.25 mg/L (≈ 0.546 µM) in [5]; 0.25 mg/L (≈ 0.546 µM) in assay [6] (setting [14]); 8 mg/L (≈ 17.5 µM) in [7]. The compound also returned an MIC in the assay with E. coli UBMS 90-4 Tet M of more than 32 mg/L.

In the case of `CN(C)[C@@H]1C(O)=C(C(N)=O)C(=O)[C@@]2(O)C(O)=C3C(=O)c4c(O)cccc4[C@@](C)(O)[C@H]3C[C@@H]12` [M, Tetracycline], the MIC in assay [1] was 32 mg/L (≈ 72 µM); with E. coli UBMS 88-1 Tet B, more than 32 mg/L; in the assay with E. coli UBMS 89-1 Tet M it was 32 mg/L (≈ 72 µM); in assay [3], more than 32 mg/L; in the assay with S. aureus ROSE (MP) (18 h), more than 32 mg/L; with S. aureus IVES 2943 (IVES2943, 18 h), more than 32 mg/L. The MIC in assay [4] (setting [17]) is 1 mg/L (≈ 2.25 µM); with E. coli J2175 it was 2 mg/L (≈ 4.5 µM); against E. coli PRP1 Tet A, 32 mg/L (≈ 72 µM); in the assay on S. mariescens FPOR 8733 it was more than 32 mg/L; in the assay with Enterococcus 12201 (Enterococcus, 12201, 18 h), more than 32 mg/L; against E. coli J3272 Tet D, more than 32 mg/L. The MIC was more than 32 mg/L in [5]; 16 mg/L (≈ 36 µM) in the assay with E. faecalis ATCC 29212 (setting [13]); 8 mg/L (≈ 18 µM) in assay [6] (setting [14]); more than 32 mg/L in assay [7] (setting [16]); 32 mg/L (≈ 72 µM) in the assay with E. coli UBMS 90-4 Tet M; 2 mg/L (≈ 4.5 µM) in [8]. Further, the MIC with S. aureus IVES 1 983 (IVES1983, 18 h) was more than 32 mg/L; in [9] it was more than 32 mg/L; against E. coli J3272 Tet C, more than 32 mg/L; in assay [10] (18 h), 16 mg/L (≈ 36 µM).
